Article PMC7215238 (Bioorganic & medicinal chemistry letters, 2020)

How the values were obtained:
Assay type in all cases: cell-based
P.aeruginosa IHMA 517175 = experiment: MIC by broth microdilution, P. aeruginosa IHMA 517175; conditions: cation-adjusted Mueller-Hinton broth, CLSI guidelines, clinical strain with reduced susceptibility to PMB
A.baumannii NCTC 13424 = experiment: MIC by broth microdilution, A. baumannii NCTC 13424; conditions: cation-adjusted Mueller-Hinton broth, CLSI guidelines
E.coli ATCC 25922 = experiment: MIC by broth microdilution, E. coli ATCC 25922; conditions: cation-adjusted Mueller-Hinton broth, CLSI guidelines
K.pneumoniae ATCC 4352 = experiment: MIC by broth microdilution, K. pneumoniae ATCC 4352; conditions: cation-adjusted Mueller-Hinton broth, CLSI guidelines
A.baumannii IHMA 863866 = experiment: MIC by broth microdilution, A. baumannii IHMA 863866; conditions: cation-adjusted Mueller-Hinton broth, CLSI guidelines, clinical strain with reduced susceptibility to PMB
E.coli IHMA 940398 = experiment: MIC by broth microdilution, E. coli IHMA 940398; conditions: cation-adjusted Mueller-Hinton broth, CLSI guidelines, clinical strain with reduced susceptibility to PMB
P.aeruginosa ATCC 27853 = experiment: MIC by broth microdilution, P. aeruginosa ATCC 27853; conditions: cation-adjusted Mueller-Hinton broth, CLSI guidelines
K.pneumoniae IHMA 652780 = experiment: MIC by broth microdilution, K. pneumoniae IHMA 652780; conditions: cation-adjusted Mueller-Hinton broth, CLSI guidelines, clinical strain with reduced susceptibility to PMB

Polymyxin B [Compound 1]
MIC P.aeruginosa IHMA 517175 (P.aeruginosa IHMA 517175): 8.0 µg/mL | MIC A.baumannii NCTC 13424 (A.baumannii NCTC 13424): 0.25 µg/mL | MIC E.coli ATCC 25922 (E.coli ATCC 25922): 0.25 µg/mL | MIC K.pneumoniae ATCC 4352 (K.pneumoniae ATCC 4352): 0.125 µg/mL | MIC A.baumannii IHMA 863866 (A.baumannii IHMA 863866): 32 µg/mL | MIC E.coli IHMA 940398 (E.coli IHMA 940398): 16 µg/mL | MIC P.aeruginosa ATCC 27853 (P.aeruginosa ATCC 27853): 0.5 µg/mL | MIC K.pneumoniae IHMA 652780 (K.pneumoniae IHMA 652780): 4.0 µg/mL
